The assay deals with Serine/threonine-protein kinase pim-1 (Homo sapiens) (UniProt P11309). Briefly: PIM1 kinase inhibitors, dose response, biochemical, Z'-LYTE FRET, direct format, recombinant human (AID 1671353). To be noted: Z'-LYTE FRET peptide phosphorylation.

Drawing on PubChem BioAssay AID1671353, this text covers IC50 for one compound.

Consider `Brc1c(Br)c(Br)c2n[nH]nc2c1Br`, for which the half-inhibitory concentration (IC50) (in general, the concentration needed to halve the response being measured) was 1970 nM.
